# Columns and labels:
# C. parvum = assay: Inhibition of C. parvum infection in IFNγ −/− mice; type: in vivo, C57BL/6 IFNγ −/− mice; settings: 4 mg/kg oral gavage every 12 h, four doses, days 5 and 6 post-infection, AUC of RLUs/gram feces
# Procedure: Inhibition of C. parvum infection in IFN-gamma knock-out (IFNγ −/−) mice: Twelve female C57BL/6 IFNγ −/− mice (4 weeks old) from the Jackson Laboratory were housed in a controlled environment with a 12 h light/dark cycle and access to food and water ad libitum. Cp-NLuc oocysts were isolated from infected mouse feces and purified using a sodium chloride density gradient. Mice were inoculated via oral gavage with a suspension of 10^4 oocysts in 50 µL sterile PBS. On days 5 and 6 post-infection, mice were treated with 4 mg/kg of oidiolactone A or DMSO vehicle control every 12 h for a total of four doses (6 mice per treatment group). Fecal samples were collected daily and stored at −20 °C until analysis. Feces were homogenized in a lysis buffer solution, centrifuged, and the supernatant was incubated with Nano-Glo® substrate in a 96-well plate, as previously described. Luminescence was measured in a microplate reader immediately after substrate addition. Oocyst shedding, measured in RLUs/gram of feces, was plotted over time, and the area under the curve was determined for each mouse. Mice were sacrificed 14 days post-infection, and serum was collected for biochemical analysis. Biochemical analyses were performed using the Beckman Coulter AU480 automated analyzer (Beckman Coulter, Brea, CA, USA) at the Clinical Pathology Laboratory, Veterinary Medical Center, University of Minnesota.
# [1] = test system: G. lamblia WBC6 and CBG99 trophozoites; assay: Giardia lamblia trophozoite growth inhibition assay; type: cell-based
# Procedure: Compound inhibition assay against Giardia lamblia WBC6 and CBG99 trophozoites: Biological replicates of growth inhibition assays were performed using wild-type G. lamblia WBC6 and G. lamblia CBG99 trophozoites at 37 °C under reduced oxygen conditions in a sealed 0.5 mL airtight sterile tube (USA Scientific, Ocala, FL, USA), following the susceptibility assay described below. G. lamblia trophozoites were grown in TYI-S-33 medium supplemented with 10% bovine serum and 0.05 mg/mL bovine bile, as previously described. A 3-fold serial concentration of pure compounds starting at 29 µM was screened against 75,000 cells/mL of parasites in modified TYI-S-33 medium with a final dimethyl sulfoxide (DMSO) concentration of 0.14%. Metronidazole was run in parallel at a final highest concentration of 66.7 µM and 3-fold subsequent serial dilutions. The untreated negative control contained 0.14% of DMSO. Sealable test tubes filled to its maximum volume of 700 µL were used to perform this assay. The test tubes were incubated at 37 °C for 72 h. After incubation, the tubes were chilled on ice, and the reaction was transferred to 96-well plates. In the plate, 50 µL of an ATP binding luminescence marker, CellTiter-Glo (Promega, Madison, WI, USA) or 10 µL of 2.5 mg/mL d-luciferin (GoldBio, St Louis, MO, USA) was added to each well and allowed to develop at room temperature for 10 min [31, 36]. The assay was read and analyzed using an EnVision Plate Reader (Perkin Elmer, Waltham, MA, USA). Response curves and EC50 values (the concentration at which 50% of G. lamblia trophozoite growth was inhibited) were calculated using GraphPad Prism (GraphPad, LaJolla, CA, USA).
# P. falciparum line Dd2 = assay: Plasmodium falciparum growth inhibition assay (SYBR Green I), Dd2
# Procedure: Plasmodium falciparum growth inhibition assay: Antiplasmodial EC50 results were determined using a fluorescence-based SYBR Green I assay performed using asynchronous cultures [30, 35]. […] Plates were subsequently frozen at −80 °C to facilitate lysis. […] Relative fluorescence units (RFUs) were normalized based on chloroquine-treated and no treatment controls. Serial dilutions of compounds were prepared in RPMI with final assay conditions of ≤0.2% DMSO. Each assay was conducted in triplicate with three biological replicates.
# [2] = test system: T. gondii intracellular stages; assay: T. gondii immunofluorescence assay; type: cell-based, Toxoplasma gondii; settings: 7.5 µM, 24 h
# Procedure: For T. gondii IFAs, confluent HFF cells in 4-well chamber cell culture glass slides were infected with either 5 × 10^4 or 1 × 10^5 parasites/mL. At 6 hpi, 7.5 µM oidiolactone A or DMSO control was diluted in culture medium and added to the slides for 24 h. The slides were then fixed with 4% paraformaldehyde and permeabilized with 0.25% Triton-X. The slides were blocked with 3% goat serum in 0.25% Triton-X. The parasites were visualized with anti-T. gondii SAG1 and Alexa Fluor 594 goat anti-rabbit antibody. The slides were mounted, and images were acquired as described above and processed with NIS Elements GA3 (general analysis 3).
# [3] = test system: C. parvum intracellular stages; assay: C. parvum immunofluorescence assay; type: cell-based, Cryptosporidium parvum; settings: 7.5 µM, 20 h
# Procedure: C. parvum and T. gondii immunofluorescence assays (IFAs): IFAs were conducted as previously described with modifications. For C. parvum IFAs, HCT-8 cells were seeded on 4-well chamber cell culture glass slides (CELLTREAT Scientific Product, Pepperell, MA, USA). At confluency, the cell monolayers were infected with 5 × 10^5 wild-type (WT) C. parvum oocysts prepared as previously described. Slides were spun at 1000 rpm for 3 min to allow oocysts to have full contact with the cell monolayers. At 4 hpi, 7.5 µM oidiolactone A or DMSO control, diluted in medium containing 0.6% taurocholic acid, was added to the infected cells for 20 h. At 24 hpi, the slides were fixed with 4% paraformaldehyde and permeabilized with 0.25% Triton-X. The slides were then blocked with 10% goat serum in 1x PBS. C. parvum intracellular stages were visualized with Sporo-glo (Waterborne inc., New Orleans, LA, USA). The slides were mounted using VECTASHIELD® PLUS Antifade Mounting Medium with DAPI (Vector Laboratories, Inc., Newark CA, USA). Representative images of the samples were taken using the Nikon AX R confocal microscope and Nikon Elements acquisition software. Image processing was performed using Fiji v1.54p.
# HFF cells = assay: HFF cytotoxicity assay; type: cell-based
# Procedure: HCT-8 and HFF cytotoxicity assays: Cytotoxicity of the compounds was determined against both confluent (the conditions of the infection assays) and growing HCT-8 and HFF host cells, as previously described. Cells were seeded into white-sided, clear-bottom 96-well plates and grown to either 40% or 100% confluency. Compounds were added to cells at various concentrations up to 100 µM in a final DMSO concentration of 0.5%. DMSO was run in parallel as a vehicle control. After 48 h, the viability of the cells was determined by either quantification of cellular ATP (Cell-Titer Glo cell viability assay; Promega, Madison WI, USA) or by MTT assay. Viability was determined 24 h after compound addition to HFF cells or 48 h after compound addition to HCT-8 cells or HepG2 cells. The percent cell growth was then calculated with the following formula: % Cell Growth = [RLUcompound/RLUDMSO] × 100. Samples were run in triplicate with two to three biological replicates.
smiles,measurement,setting,value
"CO[C@H]1OC(=O)C=C2[C@@]13O[C@@H]3[C@H]1OC(=O)[C@@]3(C)CCC[C@@]2(C)[C@@H]13 [compound 1, oidiolactone A]",reduction in C. parvum oocyst shedding,C. parvum,70%
same,activity against G. lamblia (no activity up to),[1]; 72 h,> 29 µM
same,EC50,"[1]; Giardia duodenalis, read-out: EC50 G. lamblia",> 30 µM
same,SI: selectivity index=EC50 HepG2/ EC50 compound,P. falciparum line Dd2,> 11
same,EC50,"P. falciparum line Dd2; Plasmodium falciparum, DD2, 72 h, read-out: EC50 Dd2 (M)",2.26e-06 ± 4.6e-07 M
same,abundance of treated T. gondii parasites by IFA,[2],much lower abundances
same,abundance of treated C. parvum parasites by IFA,[3],much lower abundances
same,TC50 HFF (confluent),HFF cells; confluent,> 30 µM
same,toxicity to host cells (no toxicity up to),"HFF cells; confluent HFF, conditions of the infection assay, 24 h, cellular ATP",> 100 µM
same,cytotoxicity against sub-confluent HFF,HFF cells; sub-confluent,no cytotoxicity observed

# Source: paper PMC12654037, “Norditerpene Natural Products from Subterranean Fungi with Anti-Parasitic Activity” (Microorganisms, 2025)
